Assay results reported in patent publication US20190321291A1, “3D Printing and Drug Delivery” (Biogelx Limited, priority 2016, published 2019).
“And” between values parts separate entries of the source, which are not always exact repeats. Equal values may be shown once.

Experiment: Drug release assay from Fmoc-FF/S hydrogel into PBS release buffer, HPLC analysis
Assay type: physicochemical
Conditions: for release profile from the hydrogel compared with control PBS solution: Fmoc-FF/S hydrogel; for duration of sustained release from the gel: 7-day study; for time over which significant drug concentration continued to be released: gel
Experimental: (§1) An 1100 Series high-performance liquid chromatography pump (Agilent, USA) was used for the analysis which was performed using acetonitrile with 0.1% TFA and water with 0.1% TFA. […] This concentration was kept constant until 16 mins; after that the gradient was decreased, reaching 40% (v/v) acetonitrile in water at 19 mins. The data was then processed manually using the software ‘Agilent Chemstation.’
The triplicate samples of release buffer were analysed by HPLC, and for the peaks corresponding to each model drug compound the peak area was measured. The average peak area was recorded, and using a standard curve prepared for each compound the concentration of each was determined.
At each of the specified time points the release buffer remaining in the wells was transferred to HPLC vials and stored at 4° C. until HPLC analysis was performed.
as §1, with “mins when” for “mins; after that”, “decreased to” for “decreased, reaching”
The triplicate samples of release buffer were analysed by HPLC, and for the peaks corresponding to each model drug compound the peak area was measured. The average peak area was recorded, and using standard curve prepared for each compound the concentration of each was determined.

[1] = 30 min, 2 mM control solution of drug in PBS, release buffer PBS 37° C.
[2] = 30 min, drug in Fmoc-FF/S gel, release buffer PBS 37° C.

SMILES	release profile from the hydrogel compared with control PBS solution	duration of sustained release from the gel (Fmoc-FF/S gel)	release time from the control insert (control solution in PBS)	Concentration (ug/mL) Control [1]	Concentration (ug/mL) Gel [2]	Concentration (ug/mL) Gel (3 h, Fmoc-FF/S gel)	Concentration (ug/mL) Control (3 h, control solution in PBS)	Concentration (ug/mL) Gel (6 h, Fmoc-FF/S gel)	Concentration (ug/mL) Control (6 h, control solution in PBS)	Concentration (ug/mL) Gel (9 h, Fmoc-FF/S gel)	Concentration (ug/mL) Control (9 h, control solution in PBS)	Concentration (ug/mL) Gel (24 h, Fmoc-FF/S gel)	Concentration (ug/mL) Control (24 h, control solution in PBS)	Concentration (ug/mL) Gel (48 h, Fmoc-FF/S gel)	Concentration (ug/mL) Control (48 h, control solution in PBS)	Concentration (ug/mL) Gel (72 h, Fmoc-FF/S gel)	Concentration (ug/mL) Control (72 h, control solution in PBS)	Concentration (ug/mL) Gel (5 d, Fmoc-FF/S gel)	Concentration (ug/mL) Control (5 d, control solution in PBS)	Concentration (ug/mL) Gel (7 d, Fmoc-FF/S gel)	also measured
CC(C)n1c(/C=C/[C@H](O)C[C@H](O)CC(=O)O)c(-c2ccc(F)cc2)c2ccccc21 (racemic) [Fluvastatin]	slower																				
CC(C)NCC(O)c1ccc(NS(C)(=O)=O)cc1 (stereo not drawn) [Sotalol]	slower																				
C=C[C@H]1C[N@]2CC[C@H]1C[C@@H]2[C@@H](O)c1ccnc2ccc(OC)cc12 [Quinidine]		7 days	9 h																		drug still present in the remaining gel residue at the end of the experiment (10 mM Fmoc-FF/S gel, HPLC, end of 7-day study): 4.5%; total release corresponding to control results (control solution in PBS): 85%
CC[C@H](C)C(=O)O[C@H]1C[C@H](O)C=C2C=C[C@H](C)[C@H](CC[C@@H](O)C[C@@H](O)CC(=O)O)[C@H]21 [Pravastatin]	slower																				
CC(C)NCC(O)COc1ccc(CCOCC2CC2)cc1 (stereo not drawn) [Betaxolol]		5 days	9 h	10.34 µg/mL	0.67 µg/mL	9.08 µg/mL	22.71 µg/mL	6.37 µg/mL	0.90 µg/mL	2.98 µg/mL	0.07 µg/mL	5.15 µg/mL	0 µg/mL	1.49 µg/mL	0 µg/mL	0.27 µg/mL	0 µg/mL	0.11 µg/mL	0 µg/mL	0 µg/mL	release time from the gel (10 mM Fmoc-FF/S gel): 5 days; Concentration (ug/mL) Control (7 d, control solution in PBS): 0 µg/mL
CC(C)NCC(O)COc1cccc2ccccc12 (stereo not drawn) [Propranolol]	altered significantly	> 7 days and 7 days		17.8 µg/mL	0.03 µg/mL	7.02 µg/mL	36.4 µg/mL	5.38 µg/mL	0.06 µg/mL	4.61 µg/mL	0 µg/mL	7.78 µg/mL	0 µg/mL	7.49 µg/mL	0 µg/mL	4.02 µg/mL	0 µg/mL	3.81 µg/mL	0 µg/mL	2.05 µg/mL	Concentration (ug/mL) Control (7 d, control solution in PBS): 0 µg/mL; time by which drug release was below measurable limits (control): ≤ 9 h; time over which significant drug concentration continued to be released (concentration of the peptides 10 mM): ≥ 72 h; time over which significant drug concentration continued to be released (concentration of the peptides 40 mM): ≥ 72 h
